Laboratory results reported in patent US20190167561A1, “METHODS AND COMPOSITIONS FOR REDUCING THE GRAYING OF HAIR” (Natura Cosmeticos SA, priority 2016, published 2019).

How the values were obtained:
hair follicles = test: Pigmented cell counts after NAC treatment (FIG. 12); assay type: cell-based, human; conditions: statistical significance not evaluable
ROS in hair follicles = test: Reactive Oxygen Species (ROS) assay on individual follicles; assay type: cell-based, human; conditions: NAC pretreatment, ionizing radiation 4, 8 or 12 Gy or 3% H2O2; ROS labeling 2 hours after treatment; compared to IR or H2O2 alone
Procedure: A Reactive Oxygen Species (ROS) assay was used for individual follicle observation with 5-(and-6)-chloromethyl-2′,7′-dichlorodihydrofluorescein diacetate, acetyl ester (CM-H2DCFDA). CM-H2DCFDA is a chloromethyl derivative of […], 2′,7′-dichlorohydrofluorescein diacetate (H2DCFDA), and is useful as an indicator for general ROS in cells. ROS should be labeled after 2 hours and imaged in 20 minutes, and the protocol included dissection of the follicles first before H2O2 treatment. […] The ROS detection protocol was as follows: (1) tissue preparation and culture (2) Isolation of individual follicles (3) Vertically embedding in semisolid media (4) Antioxidant treatment (NAC) on the bulge area of the hair follicles (5) Incubation for […]. (6) Treatment with ionizing radiation (e.g., 8.0 Gray) or H2O2 (7) Incubation for 2 hrs. […] NAC was applied for 24 hours before the ionizing radiation or H2O2 treatment and then 2 hours after treatment, ROS labeling and imaging have been done. The ionizing radiation was administered at doses of 4 gy, 8 Gy, or 12 Gy. Topical administration of hydrogen peroxide was used at a dose of 3%. The ROS positive cells were counted and they were normalized to DAPI positive cells.

[1] = system: melanocyte stem cells (MSCs) in the bulge areas of hair follicles of human scalp skin; test: Melanocyte stem cell damage and pigmentation assay, topical application on intact human skin specimens; assay type: cell-based; conditions: topical 24 hours, then 3% H2O2 24 hours; eight follicles per treatment
Procedure: Formulation A, placebo A, or the positive control (CPC) were topically applied to the human skin specimens for 24 hours. The specimens were next treated with 3% hydrogen peroxide (H2O2) for 24 hours at 37° C. and incubated in 5% CO2 to trigger the DNA-damage response. After 24 hours of hydrogen peroxide treatment, all portions of the hair follicles were isolated from stress treated human skin scalp. Upon isolation, the hair follicles were washed gently several times in Phosphate-buffered saline (PBS) and transferred intact into soft agar with fresh growth medium in a cell culture incubator at 37° C. and 5% CO2. Hair follicles were examined under bright field microscopy after completion of the hydrogen peroxide treatment daily from day 0 (completion of peroxide treatment) to day 7. Pigmented melanocyte stem cells (MSCs) found in the bulge areas of hair follicles were counted in the bright field view. Formulation A and Placebo A, and the positive control (CPC) were tested, and eight follicles were investigated from each treatment. Paired T-test was applied for data analysis. […] P-value of 0.05 was set as the threshold of statistical significance. […] Eight follicles were analyzed in each test set.

[2] = system: human primary hair follicles (melanocyte stem cells at the bulge area); test: Pigmentation assay on isolated human primary hair follicles in culture, H2O2 stress; assay type: cell-based; conditions: positive control, 3% H2O2
Description: A novel platform for assaying human primary hair follicles in culture was developed to profile anti-graying potentially active agents (see FIG. 1). Normal human scalp specimens were obtained from various surgeries or from donor and recipient scalp hair derived from plastic surgery. […] Intact human skin specimens were implanted in semi-solid agarose (2% agarose diluted with Williams' medium E (Gibco™) at 1:5 ratio). The hair follicle culture medium was based on Williams' medium E (Gibco™) supplemented with 2 mmol/L L-glutamine, hydrocortisone 10 ng/ml, insulin 10 μg/ml, penicillin 100 U/ml, streptomycin 100 μg/ml, and amphotericin B 25 μg/ml. To maximize the effects of the test formulations and to exclude the variability of delivery ability of the formulations through the epidermis, the test formulations were applied directly at the bulge area of the follicles using the method as follows: (1) tissue preparation and culture for 8-24 hrs. (2) Isolation of individual follicles (3) Vertically embedding in semisolid media (4) Treatment with test formulation/Positive control on the bulge area of the hair follicles (5) Incubation for 24 hrs. (6) 3% H2O2 treatment (7) Incubation for 2 hrs. (8) Repositioning in semisolid media (9) Z-stacking imaging & Analysis on day 1, 3, 7 after H2O2 treatment For the experiment, a total of 602 follicles from 9 different donors were utilized. […]

CC(=O)N[C@@H](CS)C(=O)O [NAC, N-acetyl-cysteine]
pigmented cell counts after the NAC treatment (hair follicles): tendency showing decreased pigmented cell counts | ROS generation (ROS positive cells normalized to DAPI positive cells) (ROS in hair follicles): decreased compared to IR or H2O2 treatment alone | hydrogen peroxide-induced pigmentation [1]: suppressed | pigmentation prevention at the bulge area of the follicle [2]: effective on the pigmentation prevention with statistical significance
